Data as given in ChEMBL document CHEMBL5375981, “Enhanced Tumor Targeting and Penetration of Proteolysis-Targeting Chimeras through iRGD Peptide Conjugation: A Strategy for Precise Protein Degradation in Breast Cancer” (J Med Chem, 2023).
The source made the active and inactive calls. The rule behind the calls is not given here.

What was measured:
MDA-MB-231 [1] = experiment: Antitumor activity against human MDA-MB-231 cells xenografted in BALB/C nude mouse assessed as induction of apoptosis in tumor cells at 5 to 8 uM, iv administered every other day and measured after 21 days by immunohistochemistry; format: functional, organism-based; settings: dose 5-8 µM, time 21.0 day
[2] = target: Bromodomain-containing protein 4 (Homo sapiens) (UniProt O60885); experiment: Induction of BRD4 degradation in human MCF7 cells harboring low integrin alphaVbeta3 expression at 300 nM incubated for 12 hrs by immunofluorescence staining based confocal microscopic analysis; format: cell-based
[3] = target: Bromodomain-containing protein 4 (Homo sapiens) (UniProt O60885); experiment: Induction of BRD4 degradation in human MDA-MB-231 cells harboring high integrin alphaVbeta3 expression at 0.1 to 1 uM incubated for 24 hrs by Western blot analysis; format: cell-based; settings: dose 0.1-1 µM
MDA-MB-231 [4] = experiment: Antitumor activity against human MDA-MB-231 cells xenografted in BALB/C nude mouse assessed as appearance of collapsed extravascular tumor tissue at 5 uM, iv administered every other day and measured after 21 days by H and E staining based assay; format: functional, organism-based; settings: time 21.0 day
Mus musculus = experiment: In vivo induction of BRD4 degradation in BALB/C mouse xenografted with human MDA-MB-231 cells assessed as reduction in BRD4 level by measuring reduction in green fluorescence at 5 to 8 uM, iv administered every other day and measured after 21 days by immunofluorescence analysis; format: functional, organism-based; settings: dose 5-8 µM, time 21.0 day
[5] = target: Bromodomain-containing protein 4 (Homo sapiens) (UniProt O60885); experiment: Induction of BRD4 degradation in human MDA-MB-231 cells harboring high integrin alphaVbeta3 expression assessed as reduction in BRD4 levels at 500 nM pretreated with integrin receptor antagonist cilengitide for 2 hrs followed by compound addition and measured after 12 hrs by immunofluorescence staining based confocal microscopic analysis; format: cell-based
MDA-MB-231 [6] = experiment: Antitumor activity against human MDA-MB-231 cells xenografted in BALB/C nude mouse assessed as disruption of tumor blood vessel wall at 5 uM, iv administered every other day and measured after 21 days by H and E staining based assay; format: functional, organism-based; settings: time 21.0 day
MDA-MB-231 [7] = experiment: Antimigratory activity against human MDA-MB-231 cells harboring high integrin alphaVbeta3 expression assessed as inhibition of cell migration incubated for 48 hrs by crystal violet staining based transwell assay; format: functional; settings: dose 200-300 nM
[8] = target: Bromodomain-containing protein 4 (Homo sapiens) (UniProt O60885); experiment: Induction of BRD4 degradation in human MDA-MB-231 cells harboring high integrin alphaVbeta3 expression assessed as reduction in BRD4 levels at 500 nM incubated for 12 hrs by immunofluorescence staining based confocal microscopic analysis; format: cell-based

`Cc1ncsc1-c1ccc([C@H](C)NC(=O)[C@@H]2C[C@@H](OC(=O)OCCSSCCOC(=O)CCC(=O)NCCCC[C@@H]3NC(=O)[C@H](CC(=O)O)NC(=O)CNC(=O)[C@H](CCCNC(=N)N)NC(=O)[C@@H](N)CSSC[C@@H](C(=O)O)NC(=O)[C@H](CC(=O)O)NC(=O)[C@@H]4CCCN4C(=O)CNC3=O)CN2C(=O)[C@@H](NC(=O)COCCOCCOCCNC(=O)C[C@@H]2N=C(c3ccc(Cl)cc3)c3c(sc(C)c3C)-n3c(C)nnc32)C(C)(C)C)cc1` was tested, and the Activity (MDA-MB-231 [1]) was “Active”, the Activity [2] was “inactive” and the Activity [3] was “Active”. For the same molecule, the Activity (MDA-MB-231 [4]) was “Active”, the Activity (Mus musculus) was “Active” and the Activity [5] was “inactive”. The Activity (MDA-MB-231 [6]) was “Active”, the Activity (MDA-MB-231 [7]) was “Dose-Dependent Effect” and the Activity [8] was “Active”.
